Data as given in paper PMC10144323, “Preparation and Bioevaluation of a Novel ^99mTc-Labeled Glucose Derivative Containing Cyclohexane as a Promising Tumor Imaging Agent” (Pharmaceuticals, 2023).
Read-outs that look alike come from different tables or passages of the source.

Legend:
[1] = In vitro stability in saline (radio-HPLC radiochemical purity); format: physicochemical; conditions: 4 h in saline at room temperature
Procedure: (§1) The in vitro stability of the [^99mTc]Tc-CNMCHDG complex was determined by measuring its radiochemical purity. The labeled [^99mTc]Tc-CNMCHDG complex solution was placed in saline at room temperature for 4 h, and the radiochemical purity of the complex was calculated using radio-HPLC data to determine whether the complex had good stability at room temperature. Then, 100 μL of labeled solution (1.8 MBq) and 200 μL of mouse serum were added to a centrifuge tube, and the tube was placed in an incubator at 37 °C for 4 h. At the end of the incubation, 600 μL of an acetonitrile solvent was added to the centrifuge tube. Subsequently, the supernatant was filtered through a 0.22-μm filter and taken for HPLC analysis after centrifugation.

[2] = In vitro stability in mouse serum (radio-HPLC radiochemical purity); format: in vitro ADME; conditions: 4 h in mouse serum at 37 °C
Procedure: as §1

[3] = Determination of the partition coefficient (log P); format: physicochemical; conditions: n-octanol / phosphate buffer (0.025 M, pH 7.4)
Procedure: To determine the partition coefficient, 1.4 mL of phosphate buffer (0.025 M, pH 7.4) and 1.5 mL of n-octanol was taken into a 5 mL centrifuge tube, to which 0.1 mL of the [^99mTc]Tc-CNMCHDG solution (2.4 MBq) was added into the centrifuge tube in turn. The solution was then vortexed for 3 min and centrifuged for 3 min (3000 r/min). Then, 0.1 mL was removed from the two phases with a pipette gun, respectively, and the radioactive counts of the two phases were measured and used to calculate the partition coefficient P. The final partition coefficient was expressed as log P ± SD.

[4] = test system: A549 tumor cells; assay: In vitro cellular uptake studies; format: cell-based, Human; conditions: glucose-free DMEM, 1 h uptake
Procedure: Human alveolar basal epithelial cells from lung cancer cells (A549 cells) were used in in vitro cellular uptake studies. A549 cells in the logarithmic growth phase were collected, prepared in a cell suspension of 3 × 10^5 cells/mL DMEM medium, and seeded into a 24-well plate (1 mL/well). The cells were evenly dispersed in the holes by vibration. Afterwards, the well plate was placed in a 37 °C incubator with 5% CO2 overnight to enable the cells to grow and stick to the bottom of the wells. After the cells were attached to the wells, the medium in the well plate was aspirated and washed with 0.5 mL of glucose-free DMEM medium, followed by the addition of 0.5 mL of glucose-free DMEM for glucose deprivation. One hour later, 0.1 mL of glucose-free medium, D-glucose (2 mg), L-glucose (2 mg) and insulin (2 IU) were added to the wells, respectively, and the cells were preincubated for 15 min. Subsequently, 0.1 mL of [^99mTc]Tc-CNMCHDG complex solution (0.74 MBq) was added to each well, and the volume of the solution in the wells was made up to 1 mL using the glucose-free DMEM. The well plates continued to be incubated in a 37 °C incubator, and after 1 h, the medium was aspirated and washed twice with 0.5 mL of cold PBS solution (0.067 M, pH 7.4). The cells were lysed by adding 0.5 mL of a sodium hydroxide solution (1 M). Finally, the solution was transferred to plastic test tubes, and the radioactivity counts were measured using a γ-counter detector. This procedure was carried out four times for each group.

[5] = test system: A549 tumor-bearing mice; assay: Biodistribution in A549 tumor-bearing mice; format: in vivo, balb/c nude mice; conditions: for tumor uptake: i.v., n = 3
Procedure: (§2) Animal studies were performed according to the Regulation on Laboratory Animals of the Beijing Municipality and the guidelines of the Ethics Committee of Beijing Normal University (permit no. BNUCC-EAW-2022-001). The A549 tumor-bearing model mice were developed by injecting 2 × 10^6 A549 cells in 0.1 mL of F-12k medium subcutaneously into the armpit of the right upper limb of balb/c nude mice. Similarly, the S180 tumor-bearing model mice were developed by subcutaneously injecting 1 × 10^6 S180 cells in 0.1 mL of saline into the right upper limb of female Kunming mice. The biodistribution of the tumor-bearing mice was determined when the tumor grew to approximately 5 mm after about two weeks of feeding. The A549 tumor mice were injected with 0.1 mL of the radiolabeled [^99mTc]Tc-CNMCHDG or [^99mTc]Tc-CN7DG solution (0.37 MBq) through the tail vein and sacrificed after 30 and 120 min post-injection (n = 3). In addition, to test whether the [^99mTc]Tc-CNMCHDG complex was involved in the glucose transporter mechanism, saline (0.1 mL), 2-deoxy-D-glucose (6 mg per mouse) and insulin (0.25 units per mouse) were injected into S180 tumor mice half an hour before administering the radiolabeled complex, and the mice were sacrificed at 60 min post-injection (n = 5). The organs and tissues of interest, such as heart, liver, lung, kidney, spleen, stomach, bone, intestine and tumor, were dissected, wiped and weighed. Finally, the radioactivity count in these organs and tissues was measured using a γ-counter detector, and the final results were expressed as the percent uptake of injected dose per gram ± the standard deviation (%ID/g ± SD).

[6] = test system: S180 tumor-bearing mice; assay: Biodistribution in S180 tumor-bearing mice with pre-treatment (uptake mechanism); format: in vivo, female Kunming mice
Procedure: as §2

[7] = test system: A549 tumor-bearing mice; assay: SPECT/CT imaging studies; format: in vivo
Procedure: The radiolabeled [^99mTc]Tc-CNMCHDG solution (18.5 MBq) was injected into the A549 tumor-bearing mice via the tail vein, and the SPECT imaging study was performed at 2 h post-injection. In the same tumor mice, at the end of radioactive metabolism, the [^99mTc]Tc-CN7DG solution (18.5 MBq) was injected similarly into the same mice through the tail vein. The mice were anesthetized with 1.5% isoflurane and placed on a SPECT/CT scanner for imaging. The imaging scan settings were as follows: CT scan (512 views, 2 × 2 binding, 75 kV) for 15 min, followed by SPECT acquisition (Peak 140 keV, 20% width, 90° rotation, MMP 919 collimator) after 4 min. HiSPECT software and Vivoquant 2.5 software (Trifoil imaging, CA, USA) were used to acquire the SPECT/CT images (n = 3).

[8] = Pharmacokinetic characteristics (blood time-activity); format: in vivo; conditions: healthy Kunming female mice
Procedure: Drug and Statistics (DAS) 3.2.8 software was used to calculate the pharmacokinetic parameters and to study the relationship between drug concentration and time based on the results. Time-activity curve of blood of [^99mTc]Tc-CNMCHDG in healthy kunming female mice was shown in Figure 6 and major pharmacokinetics parameters are listed in Table 1. […] In addition, the blood intake values were all lower than 0.1%ID/g at 90 min post-injection. According to the calculation results of the DAS 3.2.8 software, the distribution of [^99mTc]Tc-CNMCHDG in the blood was in accordance with the three-compartment mode.
Forty Kunming female mice were divided into eight groups and injected with 0.1 mL of [^99mTc]Tc-CNMCHDG (0.37 MBq) via tail vein, and were sacrificed at 2, 5, 10, 30, 60, 90, 120 and 240 min after injection, respectively. The blood samples were collected, weighed and counted a γ-counter detector to calculate the%ID/g value. The blood uptake-time curves were generated and analyzed by DAS 3.2.8 software.

[9] = S180 tumor-bearing mice, 60 min post-injection
[10] = blood, three-compartmental modeling (DAS 3.2.8), i.v.
[11] = blood, three-compartmental modeling, i.v.

In the case of `O=C(NC1C(O)OC(CO)C(O)C1O)C1CCC(C[N+]#[C][99Tc+]([C]#[N+]CC2CCC(C(=O)NC3C(O)OC(CO)C(O)C3O)CC2)([C]#[N+]CC2CCC(C(=O)NC3C(O)OC(CO)C(O)C3O)CC2)([C]#[N+]CC2CCC(C(=O)NC3C(O)OC(CO)C(O)C3O)CC2)([C]#[N+]CC2CCC(C(=O)NC3C(O)OC(CO)C(O)C3O)CC2)[C]#[N+]CC2CCC(C(=O)NC3C(O)OC(CO)C(O)C3O)CC2)CC1` (centres unmarked) [[^99mTc]Tc-CNMCHDG], the “radiochemical purity after incubation” value [1] is reported as “higher than 90%”, the “radiochemical purity after incubation” value [2] is reported as “higher than 90%” and the “partition coefficient (log P)” value [3] is reported as −3.65 ± 0.10. For the same compound, the “inhibition of cellular uptake by D-glucose” value ([4]; D-glucose (2 mg) preincubated 15 min, p = 0.009) was 29%, the “change of cellular uptake by L-glucose” value ([4]; L-glucose (2 mg) preincubated 15 min) was “not significantly changed” and the “increase of cellular uptake after insulin” value ([4]; insulin (2 IU) preincubated 15 min, p = 0.002) was 57%. For the same compound, the kidney uptake ([5]; 30 min post-injection) was 6.54 ± 1.10 %ID/g, the liver uptake ([5]; 30 min post-injection) was 2.74 ± 0.31 %ID/g and the lung uptake ([5]; 30 min post-injection) was 1.98 ± 0.31 %ID/g. The tumor uptake ([5]; 30 min post-injection) was 5.40 ± 0.29 %ID/g, the “tumor uptake compared to [^99mTc]Tc-CN7DG” value ([5]; 120 min post-injection) was “slightly lower” and the tumor/liver ratio ([5]; 120 min post-injection) was 3.24 ± 0.25. The tumor/lung ratio ([5]; 120 min post-injection) was 5.41 ± 0.39, the “uptake in non-target organs such as liver and lung compared to [^99mTc]Tc-CN7DG” value ([5]; 120 min post-injection) was “significantly lower” and the tumor uptake ([5]; 120 min post-injection) was 4.42 ± 0.36 %ID/g. For the same compound, the tumor uptake [6] was 6.30 ± 0.56 %ID/g, the “decrease of tumor uptake by D-glucose pre-treatment” value [6, 9] was 43% and the “increase of tumor uptake by insulin pre-treatment” value [6, 9] was 35%. The tumor uptake ([6]; S180 tumor-bearing mice, 60 min post-injection, pre-treatment with D-glucose, n = 5) was 2.64 ± 0.48 %ID/g, the tumor uptake ([6]; S180 tumor-bearing mice, 60 min post-injection, saline pre-treatment (control), n = 5) was 4.66 ± 0.34 %ID/g and the “route of metabolism/excretion in vivo (SPECT/CT signals in bladder and kidney)” value ([7]; A549 tumor-bearing mouse, 2 h after administration) was “mainly metabolized through the urine system”. For the same compound, the “visualization of the tumor by SPECT/CT” value ([7]; A549 tumor-bearing mouse, 2 h after administration, 18.5 MBq i.v.) was “clearly visualized”, the “SPECT/CT uptake in non-target areas (liver and kidney) compared to [^99mTc]Tc-CN7DG” value ([7]; same A549 tumor-bearing mouse, 2 h post-injection) was “significantly lower” and the “AUC(0-t)” value [8, 10] was 298.528 %ID/g × min. The “AUC(0-∞)” value [8, 10] was 353.484 %ID/g × min, the “t1/2α (blood distribution half-life)” value [8, 11] was 0.598 min and the “t1/2β (elimination half-life, fast chamber)” value [8, 11] was 10.706 min. The “t1/2γ (elimination half-life, slow chamber)” value [8, 11] was 218.932 min, the blood uptake value ([8]; 2 min post-injection, i.v., n = 5) was 21.22 ± 2.00 %ID/g and the blood uptake value ([8]; 30 min post-injection) was 1.50 ± 0.15 %ID/g. For the same compound, the blood uptake value ([8]; 60 min post-injection) was 0.37 ± 0.16 %ID/g and the blood intake values ([8]; at 90 min post-injection) was “lower than 0.1 %ID/g”.
